Laboratory results published in paper PMC3231940, “Disposition, metabolism and mass balance of [^14C]apremilast following oral administration” (Xenobiotica; the Fate of Foreign Compounds in Biological …, 2011).
Where two headings read alike, the source gives them in different places.

Tests used:
[1] = Apremilast in plasma by chiral LC/MS/MS, non-compartmental PK; format: in vivo, human
Procedure: Urine was collected pre-dose, 0-4, 4-8, 8-12, 12-24 and every 24 h thereafter up to 216h (9 days) following dose administration and was stabilized with one volume of pH 1.5 Sorensen's citrate buffer (25-mM sodium citrate buffer adjusted to pH 1.5). Individual faecal samples were collected pre-dose and for up to 9 days following dose administration, and homogenized using approximately three volumes by weight of pH 1.5 Sorensen's citrate buffer. Blood (two 5-mL samples for plasma radioactivity counting, a 3-mL sample for whole blood radioactivity counting, a 2-mL sample for apremilast analysis and a 10-mL sample for metabolite profiling) was collected into heparinized tubes at pre-dose, 0.5, 1, 1.5, 2, 2.5, 3, 4, 6, 8, 12, 16, 24, 36, 48, 72, 96, 120, 144 and 168 h following dose administration. Blood samples collected for radioactivity counting were stored at or below -20°C until analysed. Plasma was harvested by centrifugation from all other blood samples. The plasma samples for apremilast analysis and metabolite profiling were mixed with an equal volume of pH 1.5 Sorensen's citrate buffer containing 20-μM amastatin. All urine, faecal homogenates and plasma samples were stored at or below -20°C until analysed.
Plasma concentrations of apremilast were determined using a Chiral liquid chromatography with tandem mass spectrometry (LC/MS/MS) assay validated for concentrations between 1.00 and 1000ng/mL, with quality control (QC) samples prepared at 3.00, 50.0 and 750 ng/mL. Apremilast and (3S-cis)-(+)-tetrahydro-3,7a-diphenylpyrrolo[2, 1-b] oxazol-5(6H)-one (internal standard; IS) were extracted from 50 μL of plasma (stabilized with 50-μL Sorenson's citrate buffer) using liquid-liquid extraction with methyl tertiary butyl ether. The aqueous layer was frozen and the solvent layer was transferred to a new tube. The solvent was evaporated, the samples were reconstituted and injected for LC/MS/MS analysis using a Chiral AGP (150×4.0mm, 5 μm; Chrom Tech, Inc., Apple Valley, MN) analytical column. Positive ions were measured in the multiple reaction monitoring (MRM) mode using a Sciex API-4000 tandem mass spectrometer equipped with a Turbo IonSpray source with precursor→product ion pairs of 461.0→177.9 for apremilast and 280.1→160.3 for IS. For the QC samples, the accuracy ranged from 87.5% to 106.7%.
Pharmacokinetic data were generated by non-compartmental analysis of plasma or whole blood versus time profiles using WinNonlin (version 4.1, Enterprise Edition). For individual subjects, the peak concentration (Cmax), time to Cmax (Tmax), area under the concentration versus time curve from time zero to the last quantifiable concentration (AUC0-t), area under the concentration versus time curve from time zero to infinity (AUC0-∞ and the apparent terminal elimination half-life (t½) were determined. AUC0-t) and AUC0-∞ were calculated using the linear trapezoidal rule. AUC0-∞ was calculated as the sum of […], where Clast, is the last observed quantifiable concentration.

[2] = tested on: TNF-α production by human peripheral blood mononuclear cells; assay: TNF-α production assay in LPS-stimulated PBMC; format: cell-based; settings: LPS 1 ng/mL, 16-18 h, ELISA
Procedure: PDE4 enzyme was isolated from U937 human monocytic cells and used for testing inhibition in a cAMP hydrolysis assay as previously described ([Schafer et al. 2010]). For the TNF-α production assay, human peripheral blood mono-nuclear cells (PBMC) were isolated from buffy coat of normal donor blood units (Blood Center of New Jersey, East Orange, NJ) by density centrifugation over Ficoll Hypaque (Pharmacia, Piscataway, NJ). Cells were cultured in RPMI 1640 (Life Technologies, Grand Island, NY) supplemented with 5% AB^+ human serum (Gemini Bio-products, Woodland, CA), 2-mM L-glutamine, 100-U/mL penicillin and 100-μg/mL streptomycin (Life Technologies). PBMC (2×10^5 cells) were plated in 96-well flat-bottom Costar tissue culture plates (Corning, NY) in duplicate. Cells were stimulated with lipopolysaccharides (LPS) (from Salmonella abortus equi; Sigma cat.no. L-1887, St.Louis, MO) at a final concentration of 1 ng/mL in the absence or presence of compounds. The compounds were dissolved in DMSO (Sigma) and subsequent dilutions were done in culture medium immediately before use. The compounds were added to cells 1 h before LPS stimulation. The cells were incubated for 16-18 h at 37°C in 5% CO2, and super-natants were then collected, diluted with culture medium and assayed for TNF-α levels by enzyme-linked immunosorbent assay (ThermoFisher, Rockford, IL). Fifty percent inhibitory concentrations (IC50) for the PDE4 enzymatic and TNF-α assay were calculated by non-linear regression analysis using Prism 5.1 (GraphPad Software). Regression curves were sigmoidal dose response curves with maximum and minimum constrained to 100% and 0%, respectively.

[3] = tested on: CYP3A4; parameters: method as in Wu et al. 2006; settings: co-administration with ketoconazole, healthy subjects; ref Wu et al. 2006; cited from earlier work

Plasma t½ ([1]; chiral LC/MS/MS assay, single oral 20-mg dose, mean ± SD): 6.8 ± 2.6 h
half-life ([1]; male, human, plasma, po, 20 mg, chiral LC/MS/MS assay, single oral 20-mg dose, mean ± SD, read-out: Plasma t½ (converted)): ~7 h
AUC ([1]; male, human, plasma, po, 20 mg, single oral 20-mg dose, read-out: AUC determined via LC/MS): 1910 ± 339 ng·h/mL
AUC ([1]; male, human, plasma, po, 20 mg, single oral dose 20 mg, 100 uCi, read-out: Mean AUC0 in plasma): 1970 ng·h/mL
AUC(0-t) ([1]; male, human, plasma, chiral LC/MS/MS assay, single oral 20-mg dose, mean ± SD, read-out: Plasma AUC0-t): 1910 ± 339 ng·h/mL
AUC(0-inf) ([1]; male, human, plasma, chiral LC/MS/MS assay, single oral 20-mg dose, mean ± SD, read-out: Plasma AUC0-∞): 1970 ± 343 ng·h/mL
Tmax ([1]; male, human, plasma, chiral LC/MS/MS assay, single oral 20-mg dose, median and range): < 2 h
Cmax ([1]; male, human, plasma, single oral dose 20 mg, 100 uCi): 333 ng/mL
IC50 [2]: 0.077 µM
SMILES: CCOc1cc([C@@H](CS(C)(=O)=O)N2C(=O)c3cccc(NC(C)=O)c3C2=O)ccc1OC [Apremilast, (+)-N-[2-[(lS)-1-(3-ethoxy-4-methoxyphenyl)-2-(methylsulfonyl)ethyl]-1,3-dioxo-2,3-dihydro-lH-isoindol-4-yl]acetamide]
Increase in apremilast AUC [3]: 36%
Increase in mean apremilast Cmax [3]: 5%
